For orientation: EC50 means the concentration giving half of the maximal effect. Broadly, the Kd is the equilibrium constant for the complex coming apart.

These results are taken from ChEMBL document CHEMBL5325459, “Design, synthesis, and analgesia evaluation of novel Transient Receptor Potential Vanilloid 1 (TRPV1) agonists modified from Cannabidiol (CBD)” (Bioorg Med Chem, 2023).

For data set [1], the target named is T1, Transient receptor potential cation channel subfamily V member 1 (Homo sapiens, UniProt Q8NER1). The data set is described as follows: Agonist activity at human TRPV1 overexpressed in HEK293 cells incubated for 1 hr by Fluo-4 AM dye based microscopic analysis. The data set is classed as cell-based.
T1 sequence (Q8NER1 whole entry): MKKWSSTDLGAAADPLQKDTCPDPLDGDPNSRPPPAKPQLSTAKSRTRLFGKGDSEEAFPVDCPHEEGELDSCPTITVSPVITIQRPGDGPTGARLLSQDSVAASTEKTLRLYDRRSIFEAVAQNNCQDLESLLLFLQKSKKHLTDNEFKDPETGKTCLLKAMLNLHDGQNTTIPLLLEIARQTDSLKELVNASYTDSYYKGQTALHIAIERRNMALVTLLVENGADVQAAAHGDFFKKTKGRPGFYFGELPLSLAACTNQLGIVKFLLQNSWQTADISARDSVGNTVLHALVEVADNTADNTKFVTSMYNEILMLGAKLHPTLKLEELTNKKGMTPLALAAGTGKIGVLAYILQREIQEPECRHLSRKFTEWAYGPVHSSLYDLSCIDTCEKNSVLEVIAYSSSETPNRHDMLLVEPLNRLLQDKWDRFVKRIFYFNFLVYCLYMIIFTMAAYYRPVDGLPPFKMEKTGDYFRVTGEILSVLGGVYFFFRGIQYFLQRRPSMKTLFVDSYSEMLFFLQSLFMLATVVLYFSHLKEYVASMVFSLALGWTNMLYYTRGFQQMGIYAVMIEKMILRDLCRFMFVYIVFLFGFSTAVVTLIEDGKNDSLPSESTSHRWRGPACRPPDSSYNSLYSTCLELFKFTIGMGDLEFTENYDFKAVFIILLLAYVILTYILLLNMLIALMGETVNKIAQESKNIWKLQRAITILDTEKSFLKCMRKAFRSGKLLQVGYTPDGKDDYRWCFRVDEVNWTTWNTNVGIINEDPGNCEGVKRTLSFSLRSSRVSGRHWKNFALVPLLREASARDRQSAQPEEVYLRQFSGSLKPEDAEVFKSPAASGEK
The nature of data set [2]: Toxicity in Kunming mouse assessed as decrease in core body temperature at 50 mg/kg measured upto hrs. The class given is organism-based. The conditions noted are these: in vivo.
The target in data set [3] is T1, Transient receptor potential cation channel subfamily V member 1. Nature of the data set: Binding affinity to human TRPV1 assessed as dissociation constant by SPR analysis.
Data set [4] in a line: Toxicity in Kunming mouse assessed as decrease in core body temperature at 50 mg/kg measured after 15 mins. The data set is classed as organism-based. Conditions: in vivo, 0.25 h.

`CCCCCc1cc(O)c(NS(=O)(=O)c2cccc3cccnc23)c(O)c1` displayed an EC50 in data set [1] of 36.4 µM.

In the case of `COc1cc(COC(=O)CCc2cc(O)c(NS(=O)(=O)c3cc(F)cc(F)c3)c(O)c2)ccc1O`, the Activity result in data set [2] was “Non-Toxic”.

Regarding `CCCCCc1cc(O)c(NS(=O)(=O)c2cccc(C(F)(F)F)c2)c(O)c1`, in data set [1], the EC50 was determined as 10.4 µM.

`CCCCCc1cc(O)c(NC(=O)c2ccc(=O)oc2)c(O)c1` had an EC50 in data set [1] of 71.2 µM.

For the molecule `C=C(C)[C@@H]1CCC(C)=C[C@H]1c1c(O)cc(CCCCC)cc1O` [CANNABIDIOL], the Activity result in data set [2] is recorded as “Non-Toxic”. This molecule yielded an EC50 in data set [1] of 38.5 µM. Moreover, the dissociation constant (Kd) in data set [3] was 110 µM.

In the case of `COc1ccc(COC(=O)CCc2cc(O)c(NS(=O)(=O)c3cc(F)cc(F)c3)c(O)c2)cc1OC`, in data set [4], the Activity entry is “Toxic”.

On to `CCCCCc1cc(O)c(NS(=O)(=O)c2cc(F)cc(F)c2)c(O)c1`, for which the EC50 in data set [1] is 39.8 µM.

`CCCCCc1cc(O)c(NS(=O)(=O)c2ccc(-c3ccccc3)cc2)c(O)c1` yielded an EC50 in data set [1] of 4.42 µM.

In data set [1], `CCCCCc1cc(O)c(NC(=O)Nc2cccc3ncccc23)c(O)c1` had an EC50 of 40.5 µM.
